Results: patent US11529302B2, “Composition, artificial nail composition, nail decoration material, artificial nail, stored container, image forming apparatus, and image forming method” (RICOH COMPANY, LTD., priority 2018, dated 2022)

Experiment: Solubility of polymerization initiator in the acrylamide compound having an ester structure
Type: physicochemical

solubility in the acrylamide compound having an ester structure: poor solubility
SMILES: Cc1cc(C)c(C(=O)P(=O)(C(=O)c2c(C)cc(C)cc2C)c2ccccc2)c(C)c1 [B2-1, Bis(2,4,6-trimethylbenzoyl) phenyl phosphine oxide]
